# US11464789B2, “Aminosterol compositions and methods of using the same for treating schizophrenia” (Enterin, Inc., priority 2018, dated 2022)
# Several values for one entry are separate records, joined by “and”; a condition that tells them apart may be missing. Identical values can stand only once. Entries after “also recorded” stand apart in the source; their conditions may differ. Like-named read-outs stand apart in the source and are kept apart here.
# Legend:
# [1] = tested on: patients with PD and constipation; assay: Circadian rhythm of wrist skin temperature; assay type: in vivo, human; conditions: for effect on circadian rhythm of skin temperature: oral administration, 12 patients with evaluable data
# Procedure: (6) I-Button Temperature Assessment. The I-Button is a small, rugged self-sufficient system that measures temperature and records the results in a protected memory section. The Thermochron I-Button DS1921H (Maxim Integrated, Dallas, Tex.) was used for skin temperature measurement. I-Buttons were programmed to sample every 10 mins., and attached to a double-sided cotton sport wrist band using Velcro, with the sensor face of the I-Button placed over the inside of the wrist, on the radial artery of the dominant hand. Subjects removed and replaced the data logger when necessary (i.e., to have a bath or shower). The value of skin temperature assessment in sleep research is that the endogenous skin warming resulting from increased skin blood flow is functionally linked to sleep propensity. From the collected data, the mesor, amplitude, acrophase (time of peak temperature), Rayleight test (an index of interdaily stability), mean waveforms are calculated);
# Assessments were made at baseline and at the end of the fixed dose and washout periods. Circadian system status was evaluated by continuously monitoring wrist skin temperature (Thermochron iButton DS1921H; Maxim, Dallas) following published procedures (Sarabia et al. 2008).
# Circadian rhythm of skin temperature was evaluable in 12 patients (i.e., those who had recordings that extended from baseline through washout). Circadian system functionality was evaluated by continuously monitoring wrist skin temperature using a temperature sensor (Thermochron iButton DS1921H; Maxim, Dallas, Tex.) (Sarabia et al. 2008). A nonparametric analysis was performed for each participant to characterize DST as previously described (Sarabia et al. 2008; Ortiz-Tudela et al. 2010).
# Briefly, this analysis includes the following parameters: (i) the inter-daily stability (the constancy of 24-hour rhythmic pattern over days, IS); (ii) intra-daily variability (rhythm fragmentation, IV); (iii) average of 10-minute intervals for the 10 hours with the minimum temperature (L10); (iv) average of 10-minute intervals for the 5 hours with the maximum temperature (M5) and the relative amplitude (RA), which was determined by the difference between M5 and L10, divided by the sum of both. Finally, the Circadian Function Index (CFI) was calculated by integrating IS, IV, and RA. Consequently, CFI is a global measure that oscillates between 0 for the absence of circadian rhythmicity and 1 for a robust circadian rhythm (Ortiz-Tudela et al. 2010).
# [2] = dogs, prior studies; cited from earlier work
# [3] = Pharmacokinetics of orally administered squalamine (ENT-01), Phase 2 trial; assay type: in vivo, human; conditions: for oral bio-availability (estimated): based on pharmacokinetic behavior of intravenously administered squalamine in prior clinical studies; for systemic absorption following oral administration: this study, PD patients
# Procedure: PK data were collected on the 10 patients enrolled in Stage 1 and 10 patients enrolled in Stage 2 to determine the extent of systemic absorption. In Stage 1, PK data were obtained at each visit, pre-medication, at 1, 2, 4, 8 and 24 hours (Table 10). In Stage 2, PK was measured on days 1 and 6 of the randomization period pre-medication, at 1, 2, 4 and 8 hours (Table 11).
# The mean Cmax, Tmax and T1/2 and AUC of the squalamine ion following squalamine (ENT-01) oral dosing for Stage 1 patients. The PK analyses are only approximate, as the lower limit of the validated concentration range was 10 ng/ml; most of the measured concentrations fell below that value. The mean Cmax, Tmax and T1/2 and AUC of the squalamine ion following squalamine (ENT-01) oral dosing for Stage 2 patients. The PK analyses are only approximate, as the lower limit of the validated concentration range was 0.5 ng/ml.
# [4] = rats, prior studies; cited from earlier work
# [5] = tested on: patients with PD and constipation; assay: Effect on bowel function, Phase 2 trial (Stage 1 single dose, Stage 2 daily dosing); assay type: in vivo, human
# Procedure: Overview: The subjects of the trial all had PD and experienced constipation, which is a characteristic of PD. The primary objectives of the trial involving patients with PD and constipation were to evaluate the safety and pharmacokinetics of oral squalamine (ENT-01) and to identify the dose required to improve bowel function, which was used as a clinical endpoint.
# ENT-01 is the phosphate salt of squalamine. For this study it has been formulated as a small 25 mg coated tablet. Dosing ranged from 25 mg to 250 mg, with dosages greater than 25 mg requiring multiple pills (e.g., 50 mg=two 25 mg pills). Dosing instructions=take 60 mins before breakfast with 8 oz. water. The dose was taken by each patient upon awakening on an empty stomach along with 8 oz. of water simultaneously to dopamine. The subject was not allowed to ingest any food for at least 60 minutes after study medication. The compound is highly charged and will adsorb to foodstuffs, so it was administered prior to feeding.
# Following successful screening, all subjects underwent a 14-day run-in period where the degree of constipation was assessed through a validated daily log (Zinsmeister et al. 2013) establishing baseline CSBMs/week. Subjects with an average of <3 CSBMs/week proceeded to dosing.
# (§1) Tolerability limits included diarrhea or vomiting.
# (§2) In Stage 2, 34 patients were evaluated.
# The primary efficacy outcome variable was whether or not a subject was a “success” or “failure”. This is an endpoint based on subject diary entries for the “fixed dose” period prior to the endpoint assessment defined as average complete stool frequency increase by 1 or more over baseline, or 3 or more complete spontaneous stools/week. The subject was deemed a “success” if s/he met one or more of the criteria listed above, otherwise the subject was deemed a “failure”. The primary analysis was based on all subjects with a baseline assessment and an assessment at the end of the “fixed-dose” period and was a comparison of the proportion of successes with 0.10 (the null hypothesis corresponding to no treatment effect).
# [6] = tested on: patients with PD and constipation; assay: Safety and adverse event profile, Phase 2 trial; assay type: in vivo, human
# Procedure: as §1, §2
# [7] = tested on: patients with PD and constipation; assay: Sleep diary (total sleep time, REM-behavior disorder); assay type: in vivo, human; conditions: beyond 125 mg
# Procedure: FIG. 3 is a chart of total sleep time in relation to squalamine dose. Total sleep time was obtained from the sleep diary by subtracting awake time during the night from total time spent in bed. Total sleep time per night was logged for each patient at baseline, each dosing period and at washout, and the means were determined. The light grey bar represents the baseline value for each cohort at a given dose level and the dark grey bar represents the value for the same cohort at the stated dose of squalamine (ENT-01). The number of patients represented at each value are: Baseline, 33; 75 mg, 21; 100 mg, 28; 125 mg, 18; 150 mg, 15; 175 mg, 12; 200 mg, 7; 225 mg, 3; 250 mg, 2; washout, 33. P values were as follows: 75 mg, p=0.4; 100 mg, p=0.1; 125 mg, p=0.3; 150 mg, p=0.07; 175 mg, p=0.03; 200 mg, p=0.3; 225 mg, p=0.5; 250 mg, p=0.3; wash-out, p=0.04 (paired t test).
# (5) Sleep Diary (participants completed a sleep diary on a daily basis throughout the study. The diaries included time into bed and estimated time to sleep as well as wake time and duration during the night); […]
# [8] = mice, prior studies; cited from earlier work
# [9] = tested on: patients with PD and constipation; assay: CNS symptoms in Stage 2 (UPDRS, MMSE, PDHQ, BDI-II, hallucinations); assay type: in vivo, human; conditions: 6 patients with hallucinations (5) or delusions (1) at baseline
# Description: (8) Beck Depression Inventory (BDI-II);
# (9) Unified Parkinson's Disease Rating Scale (UPDRS), which consists of 42 items in four subscales (Part I=Non-Motor Aspects of Experiences of Daily Living (nM-EDL) (1.1 cognitive impairment, 1.2 hallucinations and psychosis, 1.3 depressed mood, Part II=Motor Aspects of Experiences of Daily Living (M-EDL), Part III=Motor Examination, and Part IV=Motor Complications;
# (10) Mini Mental State Examination (MMSE);
# (12) The University of Miami Parkinson's Disease Hallucinations Questionnaire (UM-PDHQ); […]
# Assessments were made at baseline and at the end of the fixed dose and washout periods. Circadian system status was evaluated by continuously monitoring wrist skin temperature (Thermochron iButton DS1921H; Maxim, Dallas) following published procedures (Sarabia et al. 2008). […]
# mouse models of PD = conditions: orally administered, mice with constipation due to overexpression of human αS (West et al, manuscript in preparation); cited from earlier work
# [10] = prior studies; systemic blood levels one thousand-fold greater than oral; cited from earlier work
# [11] = tested on: IPANs (intrinsic primary afferent neuron); conditions: isolated bowel segment, PD mouse model; increasing frequency of propulsive peristaltic contractions; cited from earlier work
# [12] = Stage 2, fixed dose, n = 34, weekly average
# [13] = Stage 2, fixed dose, n = 34, weekly average, listed as aminosterol
compound,measurement,setting,value
"CC(C)[C@@H](CC[C@@H](C)[C@H]1CC[C@H]2[C@@H]3[C@H](O)C[C@H]4C[C@@H](NCCCNCCCCN)CC[C@]4(C)[C@H]3CC[C@]12C)OS(=O)(=O)O (single isomer, unassigned) [squalamine (ENT-01), squalamine]",effect on circadian rhythm of skin temperature,[1],significant positive impact; also recorded: improved all markers of healthy circadian function
same,effect on circadian rhythm of skin temperature,[1]; listed as Aminosterol,improved all markers of healthy circadian function
same,improvement of CFI during wash-out,"[1]; wash-out period, p=0.004",persisted
same,improvement of IS during wash-out,"[1]; wash-out period, p=0.008",persisted
same,systemic absorption following oral administration,[2],negligible
same,oral bio-availability (estimated),[3],less than 0.3%
same,oral bio-availability (estimated),[3]; listed as aminosterol,< 0.3%
same,systemic absorption following oral administration,[3]; listed as aminosterol,negligible
same,systemic absorption following oral administration,[4],negligible
same,"CSBM (mean, SD)",[5]; [12],3.8 CSBM/week and 3.8 (2.4) CSBM/week
same,"Suppository use / rescue medication (mean, SD)",[5]; [12],0.3 /week and 0.3 (0.67) /week
same,"CSBM (mean, SD)",[5]; [13],3.8 CSBM/week
same,"SBM (mean, SD)",[5]; [13],4.5
same,"Suppository use / rescue medication (mean, SD)",[5]; [13],0.3 /week
same,prokinetic dose (mean),[5]; patients with baseline ≥1 CSBM/week,120 mg
same,"Diarrhea, Mild",[6]; Stage 2 (34 dosed),"12 (35)^ n, %"
same,"Difficulty falling asleep, Mild",[6]; Stage 2 (34 dosed),"1 (3)^ n, %"
same,"Eye infection, Mild",[6]; Stage 2 (34 dosed),"1 (3)^ n, %"
same,"Flatulence, Mild",[6]; Stage 2 (34 dosed),"1 (3)^ n, %"
same,"Nausea, Mild",[6]; Stage 2 (34 dosed),"18 (52)^ n, %"
same,"Urinary retention, Mild",[6]; Stage 2 (34 dosed),"1 (3)^ n, %"
same,"Urinary tract infection, Mild",[6]; Stage 2 (34 dosed),"1 (3)^ n, %"
same,"Worsening hemorrhoid, Mild",[6]; Stage 2 (34 dosed),"1 (3)^ n, %"
same,patients with worsening of hemorrhoids,"[6]; all dosed, 1/44",2.2%
same,patients with worsening of acid reflux,"[6]; all dosed, 2/44",4.5%
same,patients with flatulence,"[6]; all dosed, 3/44",6.8%
same,patients with vomiting,"[6]; all dosed, 3/44",6.8%
same,patients with dizziness,"[6]; all dosed, 8/44",18%
same,patients with abdominal pain,"[6]; all dosed, 11/44",32%
same,Serious adverse event (SAE),"[6]; withdrawal period, considered unrelated to study medication",One patient had a lower GI bleed
same,total sleep time vs baseline,[7],consistently higher than baseline
same,systemic absorption following oral administration,[8],negligible
same,patients in whom hallucinations and delusions improved or disappeared during treatment,[9],improved or disappeared during treatment in five
same,patients in whom hallucinations and delusions improved or disappeared during treatment,[9]; listed as aminosterol,improved or disappeared during treatment in five
CC(C)[C@@H](CC[C@@H](C)[C@H]1CC[C@H]2[C@@H]3[C@H](O)C[C@H]4C[C@@H](NCCCNCCCCN)CC[C@]4(C)[C@H]3CC[C@]12C)OS(=O)(=O)O [squalamine],gastro-intestinal motility,mouse models of PD,stimulates gastro-intestinal motility
same,gastrointestinal motility after intravenous administration,[10],not associated with increased gastrointestinal motility
same,effect on IPANs of the ENS,[11],excitation of IPANs
same,systemic absorption following oral administration,[3],not significantly absorbed into the systemic circulation
